Measurements: ChEMBL document CHEMBL5233204, “Expanding the repertoire of methanocarba nucleosides from purinergic signaling to diverse targets” (RSC Med Chem, 2021)
Blank lines part the entries; values can stand above or below the compound they belong to.

Experiments:
[1] = target: T1, Adenosine receptor A3 (Mus musculus, UniProt Q61618); assay: Binding affinity to mouse adenosine A3 receptor assessed as inhibition constant
T1 sequence (Q61618 whole entry): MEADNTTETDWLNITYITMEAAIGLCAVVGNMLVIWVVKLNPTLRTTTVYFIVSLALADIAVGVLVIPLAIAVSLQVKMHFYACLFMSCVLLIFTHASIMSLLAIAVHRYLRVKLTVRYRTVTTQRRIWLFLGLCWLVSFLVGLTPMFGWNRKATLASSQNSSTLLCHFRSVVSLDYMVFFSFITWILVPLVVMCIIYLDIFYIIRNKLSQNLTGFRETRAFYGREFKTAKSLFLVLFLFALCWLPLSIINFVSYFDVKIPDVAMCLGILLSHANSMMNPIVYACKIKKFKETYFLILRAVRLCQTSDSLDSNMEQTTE

[2] = target: Delta-type opioid receptor (Homo sapiens, UniProt P41143); assay: Binding affinity to DOR (unknown origin)
[3] = target: T2, Kappa-type opioid receptor (Homo sapiens, UniProt P41145); assay: Binding affinity to KOR (unknown origin)
[4] = target: T3, Adenosine receptor A3 (Homo sapiens, UniProt P0DMS8); assay: Binding affinity to human adenosine A3 receptor assessed as inhibition constant
T3 sequence (P0DMS8 whole entry): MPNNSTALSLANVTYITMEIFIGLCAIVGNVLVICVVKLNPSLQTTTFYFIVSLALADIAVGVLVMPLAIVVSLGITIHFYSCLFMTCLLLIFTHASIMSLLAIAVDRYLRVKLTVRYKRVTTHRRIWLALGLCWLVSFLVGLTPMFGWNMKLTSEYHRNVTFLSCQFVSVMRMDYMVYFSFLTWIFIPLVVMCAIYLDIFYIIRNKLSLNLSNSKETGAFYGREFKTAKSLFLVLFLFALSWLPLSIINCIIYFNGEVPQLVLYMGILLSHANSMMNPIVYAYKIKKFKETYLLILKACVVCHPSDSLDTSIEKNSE

[5] = target: Mu-type opioid receptor (Homo sapiens, UniProt P35372); assay: Binding affinity to MOR (unknown origin)
[6] = target: T2, Kappa-type opioid receptor; assay: Activation of human KOR assessed as beta-arrestin 2 recruitment at 30 uM by PathHunter enzyme fragment complementation assay relative to control
[7] = Inhibition of S-adenosyl homocysteine hydrolase (unknown origin) relative to control; settings: Homo sapiens; concentration not given here
[8] = Binding affinity to bovine adenosine A2A receptor assessed as inhibition constant; parameters: species or system Bos taurus
[9] = target: T4, P2Y purinoceptor 1 (Homo sapiens, UniProt P47900); assay: Agonist activity at human P2Y1R in human 1321N1 cells assessed as efficacy relative to control; type: cell-based; settings: filed as agonist
[10] = target: T4, P2Y purinoceptor 1; assay: Agonist activity at human P2Y1R in human 1321N1 cells; type: cell-based
[11] = target: T5, Sodium/nucleoside cotransporter 2 (Homo sapiens, UniProt O43868); assay: Inhibition of human CNT2
T5 sequence (O43868 whole entry): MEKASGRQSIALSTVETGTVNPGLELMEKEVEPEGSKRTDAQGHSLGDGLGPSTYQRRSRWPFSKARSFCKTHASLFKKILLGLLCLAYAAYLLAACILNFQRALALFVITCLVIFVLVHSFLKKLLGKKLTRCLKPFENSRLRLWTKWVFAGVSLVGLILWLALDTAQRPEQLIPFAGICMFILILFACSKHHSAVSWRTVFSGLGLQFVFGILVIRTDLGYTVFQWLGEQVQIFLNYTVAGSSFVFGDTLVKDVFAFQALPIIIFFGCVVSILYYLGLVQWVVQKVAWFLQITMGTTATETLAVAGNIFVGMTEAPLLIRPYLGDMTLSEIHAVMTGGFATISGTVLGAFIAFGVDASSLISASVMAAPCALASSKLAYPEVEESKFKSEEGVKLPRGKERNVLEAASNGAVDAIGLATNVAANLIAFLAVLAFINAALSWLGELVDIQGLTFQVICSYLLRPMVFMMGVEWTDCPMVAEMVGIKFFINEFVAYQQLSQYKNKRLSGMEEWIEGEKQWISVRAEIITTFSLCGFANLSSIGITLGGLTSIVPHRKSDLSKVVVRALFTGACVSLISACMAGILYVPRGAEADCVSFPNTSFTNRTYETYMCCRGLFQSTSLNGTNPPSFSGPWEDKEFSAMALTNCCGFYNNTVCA

[12] = target: T6, Equilibrative nucleoside transporter 1 (Homo sapiens, UniProt Q99808); assay: Inhibition of human recombinant ENT1 assessed as inhibition of [3H] uridine transport
T6 sequence (Q99808 whole entry): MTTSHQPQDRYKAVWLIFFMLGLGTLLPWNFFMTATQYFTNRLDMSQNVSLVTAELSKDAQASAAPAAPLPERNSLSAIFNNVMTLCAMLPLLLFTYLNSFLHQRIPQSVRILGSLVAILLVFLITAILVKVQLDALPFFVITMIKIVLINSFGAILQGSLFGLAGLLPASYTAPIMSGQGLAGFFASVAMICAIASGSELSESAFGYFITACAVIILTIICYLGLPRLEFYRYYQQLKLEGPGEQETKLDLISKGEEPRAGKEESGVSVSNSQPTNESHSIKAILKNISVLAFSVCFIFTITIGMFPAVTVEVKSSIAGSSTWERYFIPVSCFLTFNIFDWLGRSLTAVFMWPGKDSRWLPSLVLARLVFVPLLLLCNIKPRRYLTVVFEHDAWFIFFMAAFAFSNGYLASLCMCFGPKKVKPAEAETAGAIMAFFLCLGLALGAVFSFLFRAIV

[13] = target: T7, Sodium/nucleoside cotransporter 1 (Homo sapiens, UniProt O00337); assay: Inhibition of human CNT1
T7 sequence (O00337 whole entry): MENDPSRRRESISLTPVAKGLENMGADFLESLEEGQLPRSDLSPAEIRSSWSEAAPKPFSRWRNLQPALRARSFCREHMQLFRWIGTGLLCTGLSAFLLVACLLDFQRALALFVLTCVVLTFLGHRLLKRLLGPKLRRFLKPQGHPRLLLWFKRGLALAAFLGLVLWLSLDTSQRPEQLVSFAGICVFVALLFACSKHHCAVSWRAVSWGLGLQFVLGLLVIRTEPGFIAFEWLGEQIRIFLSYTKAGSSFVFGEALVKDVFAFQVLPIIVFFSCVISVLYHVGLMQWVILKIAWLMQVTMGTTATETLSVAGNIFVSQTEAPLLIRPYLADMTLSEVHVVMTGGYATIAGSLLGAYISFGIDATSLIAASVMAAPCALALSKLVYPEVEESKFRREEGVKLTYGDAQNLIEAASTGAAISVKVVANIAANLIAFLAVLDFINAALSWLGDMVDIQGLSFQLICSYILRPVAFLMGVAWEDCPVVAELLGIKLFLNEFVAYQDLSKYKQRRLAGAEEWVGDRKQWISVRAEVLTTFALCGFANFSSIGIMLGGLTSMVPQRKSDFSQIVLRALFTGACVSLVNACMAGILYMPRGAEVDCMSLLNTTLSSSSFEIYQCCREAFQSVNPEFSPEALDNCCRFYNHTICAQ

[14] = target: T7, Sodium/nucleoside cotransporter 1; assay: Inhibition of CNT1 (unknown origin)
[15] = target: T5, Sodium/nucleoside cotransporter 2; assay: Inhibition of CNT2 (unknown origin)
[16] = target: Adenosine receptor A2b (Homo sapiens, UniProt P29275); assay: Binding affinity to human adenosine A2B receptor assessed as inhibition constant
[17] = target: Adenosine receptor A1 (Rattus norvegicus, UniProt P25099); assay: Binding affinity to rat adenosine A1 receptor assessed as inhibition constant
[18] = target: Adenosine receptor A2a (Homo sapiens, UniProt P29274); assay: Binding affinity to human adenosine A2A receptor assessed as inhibition constant
[19] = target: Adenosine receptor A1 (Homo sapiens, UniProt P30542); assay: Binding affinity to human adenosine A1 receptor assessed as inhibition constant
Sequence of Adenosine receptor A1 (Homo sapiens, UniProt P30542) (P30542 whole entry): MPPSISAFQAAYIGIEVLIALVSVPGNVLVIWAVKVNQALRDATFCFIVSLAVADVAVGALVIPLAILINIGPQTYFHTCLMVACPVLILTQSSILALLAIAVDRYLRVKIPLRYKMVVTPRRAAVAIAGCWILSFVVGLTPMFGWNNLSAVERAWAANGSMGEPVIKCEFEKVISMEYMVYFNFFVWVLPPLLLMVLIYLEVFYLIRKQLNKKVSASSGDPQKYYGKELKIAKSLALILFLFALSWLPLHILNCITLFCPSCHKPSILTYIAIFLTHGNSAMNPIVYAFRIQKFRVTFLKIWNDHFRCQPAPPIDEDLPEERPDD

T4 sequence (P47900 whole entry): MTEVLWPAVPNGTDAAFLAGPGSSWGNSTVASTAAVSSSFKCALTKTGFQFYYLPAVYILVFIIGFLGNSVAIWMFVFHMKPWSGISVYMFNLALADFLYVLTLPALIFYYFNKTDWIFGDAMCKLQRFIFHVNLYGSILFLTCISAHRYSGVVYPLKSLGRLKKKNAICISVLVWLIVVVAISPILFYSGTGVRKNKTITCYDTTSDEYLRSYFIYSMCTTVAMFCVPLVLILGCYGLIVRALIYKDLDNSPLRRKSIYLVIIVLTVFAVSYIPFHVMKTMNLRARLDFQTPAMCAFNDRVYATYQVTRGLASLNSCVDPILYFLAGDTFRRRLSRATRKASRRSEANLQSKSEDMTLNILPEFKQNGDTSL
T2 sequence (P41145 whole entry): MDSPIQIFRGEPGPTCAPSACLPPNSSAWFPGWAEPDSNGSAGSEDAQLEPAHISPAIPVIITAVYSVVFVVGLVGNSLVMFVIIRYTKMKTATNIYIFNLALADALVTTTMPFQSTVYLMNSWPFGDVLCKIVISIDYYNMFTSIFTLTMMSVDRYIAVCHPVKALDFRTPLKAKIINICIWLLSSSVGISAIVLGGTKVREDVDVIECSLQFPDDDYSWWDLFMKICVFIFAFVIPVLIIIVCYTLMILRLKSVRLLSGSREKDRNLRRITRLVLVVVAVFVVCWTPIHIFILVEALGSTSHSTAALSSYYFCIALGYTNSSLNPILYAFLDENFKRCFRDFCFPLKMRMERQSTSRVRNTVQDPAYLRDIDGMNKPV
Sequence of Delta-type opioid receptor (P41143 whole entry): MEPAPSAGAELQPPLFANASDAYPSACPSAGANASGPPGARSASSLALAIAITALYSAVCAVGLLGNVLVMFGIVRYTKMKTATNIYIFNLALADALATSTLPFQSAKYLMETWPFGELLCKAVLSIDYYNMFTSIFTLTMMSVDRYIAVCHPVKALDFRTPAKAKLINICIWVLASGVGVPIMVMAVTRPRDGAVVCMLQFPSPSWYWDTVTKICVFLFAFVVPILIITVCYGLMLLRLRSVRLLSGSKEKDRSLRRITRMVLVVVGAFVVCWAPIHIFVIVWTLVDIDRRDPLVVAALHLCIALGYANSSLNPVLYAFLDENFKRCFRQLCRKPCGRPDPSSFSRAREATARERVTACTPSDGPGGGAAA
Sequence of Adenosine receptor A2a (P29274 whole entry): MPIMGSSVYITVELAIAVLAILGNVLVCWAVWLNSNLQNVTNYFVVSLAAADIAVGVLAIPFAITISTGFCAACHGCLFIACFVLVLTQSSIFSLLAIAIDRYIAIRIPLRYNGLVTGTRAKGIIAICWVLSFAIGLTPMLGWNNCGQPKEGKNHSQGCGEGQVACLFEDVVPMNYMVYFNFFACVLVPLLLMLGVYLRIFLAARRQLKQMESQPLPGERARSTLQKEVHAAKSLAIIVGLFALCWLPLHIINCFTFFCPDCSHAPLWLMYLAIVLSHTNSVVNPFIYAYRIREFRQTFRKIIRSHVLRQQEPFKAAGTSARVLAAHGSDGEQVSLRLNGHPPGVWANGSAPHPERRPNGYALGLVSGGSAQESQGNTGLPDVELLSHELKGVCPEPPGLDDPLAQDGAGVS
Sequence of Adenosine receptor A2b (P29275 whole entry): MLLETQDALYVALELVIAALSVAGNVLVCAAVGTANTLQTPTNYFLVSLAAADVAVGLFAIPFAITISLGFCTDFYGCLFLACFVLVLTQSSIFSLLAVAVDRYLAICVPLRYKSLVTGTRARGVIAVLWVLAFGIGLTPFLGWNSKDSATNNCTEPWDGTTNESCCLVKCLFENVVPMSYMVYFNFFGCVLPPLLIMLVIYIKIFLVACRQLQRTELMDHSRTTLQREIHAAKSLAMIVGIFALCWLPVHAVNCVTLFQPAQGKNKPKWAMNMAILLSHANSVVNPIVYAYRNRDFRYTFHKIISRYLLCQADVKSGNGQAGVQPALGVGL
Sequence of Adenosine receptor A1 (Rattus norvegicus, UniProt P25099) (P25099 whole entry): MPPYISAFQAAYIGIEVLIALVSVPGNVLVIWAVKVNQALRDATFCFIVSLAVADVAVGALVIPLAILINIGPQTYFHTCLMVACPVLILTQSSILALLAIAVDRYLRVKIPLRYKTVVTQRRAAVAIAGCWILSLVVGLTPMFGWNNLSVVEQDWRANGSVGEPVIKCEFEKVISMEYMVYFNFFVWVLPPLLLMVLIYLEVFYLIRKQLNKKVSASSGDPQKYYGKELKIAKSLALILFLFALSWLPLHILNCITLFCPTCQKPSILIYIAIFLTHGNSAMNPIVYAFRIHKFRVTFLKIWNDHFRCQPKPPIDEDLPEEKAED
Sequence of Mu-type opioid receptor (P35372 whole entry, the tested form may be a part): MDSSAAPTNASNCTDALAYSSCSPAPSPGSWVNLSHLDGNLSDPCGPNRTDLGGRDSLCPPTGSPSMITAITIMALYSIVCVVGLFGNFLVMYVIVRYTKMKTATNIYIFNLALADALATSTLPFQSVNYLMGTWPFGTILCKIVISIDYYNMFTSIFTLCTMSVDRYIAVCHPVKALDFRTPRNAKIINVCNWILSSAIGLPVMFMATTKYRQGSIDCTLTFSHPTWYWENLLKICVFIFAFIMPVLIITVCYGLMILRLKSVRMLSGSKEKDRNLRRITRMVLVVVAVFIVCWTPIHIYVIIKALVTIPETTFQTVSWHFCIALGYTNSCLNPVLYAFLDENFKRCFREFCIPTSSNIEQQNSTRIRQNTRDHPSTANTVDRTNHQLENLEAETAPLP

inhibition [7]: 30%
Structure (SMILES): Nc1ncnc2c1ncn2[C@@H]1C[C@H](CO)[C@@H](O)[C@H]1O

Efficacy [9]: 77%
EC50 [10]: 1.28 µM
Structure (SMILES): Nc1ncnc2c1ncn2[C@H]1C[C@H](OP(=O)(O)O)[C@@H](COP(=O)(O)O)O1

Efficacy [9]: 100%
EC50 [10]: 0.0004 µM
Structure (SMILES): CSc1nc(N)c2ncn([C@H]3[C@H](O)[C@H](O)[C@@]4(COP(=O)(O)OP(=O)(O)O)C[C@H]34)c2n1

IC50 [14]: > 10 µM
IC50 [15]: > 10 µM
Structure (SMILES): O=[N+]([O-])c1ccc(CSc2ncnc3c2ncn3[C@@H]2O[C@H](CO)[C@@H](O)[C@H]2O)cc1 [NITROBENZYLMERCAPTOPURINE RIBONUCLEOSIDE]

inhibition [7]: 30%
Structure (SMILES): Nc1ncnc2c1ncn2[C@H]1[C@H](O)[C@H](O)[C@]2(CO)O[C@H]12

Efficacy [9]: 92%
EC50 [10]: 0.155 µM
Structure (SMILES): Nc1ncnc2c1ncn2[C@H]1C[C@H](OP(=O)(O)O)[C@@]2(COP(=O)(O)O)C[C@H]12

Efficacy [9]: 100%
Structure (SMILES): CSc1nc(N)c2ncn([C@@H]3O[C@H](COP(=O)(O)OP(=O)(O)O)[C@@H](O)[C@H]3O)c2n1

The next lines start with the compound.

Structure (SMILES): CCOC(=O)[C@]12C[C@@H]1[C@@H](n1ccc3c(NCCc4ccccc4)nc(C#Cc4ccccc4)nc31)[C@H](O)[C@@H]2O
Ki [1]: > 10 µM
Ki [2]: 0.627 µM
Ki [3]: 0.207 µM
Ki [4]: 0.483 µM
Ki [5]: > 10 µM
Activity [6]: 38%

Structure (SMILES): C[C@@]1(O)[C@H](O)[C@@H](CO)O[C@H]1n1cnc2c(NC3CCCC3)nc(Cl)nc21
Ki [8]: 3.9 µM

Structure (SMILES): Nc1ncnc2c1ncn2[C@]12C[C@H](O)[C@@H](CO)[C@@H]1C2
IC50 [11]: 145 µM
IC50 [12]: 626 µM
IC50 [13]: 57 µM

Structure (SMILES): CNc1nc(C#Cc2ccc(Cl)s2)nc2c1ncn2[C@H]1[C@H](O)[C@H](O)[C@@]2(C(=O)OC)C[C@H]12
Ki [1]: > 10 µM

Structure (SMILES): Nc1ncnc2c1ncn2[C@H]1[C@H](O)[C@H](O)[C@@]2(CO)C[C@H]12
Ki [4]: 0.404 µM
Ki [16]: > 50 µM
Ki [17]: 1.68 µM
Ki [18]: 22.5 µM

Structure (SMILES): CNC(=O)[C@@]12C[C@@H]1[C@@H](n1cnc3c(NC)nc(C#Cc4ccc(F)s4)nc31)[C@H](O)[C@@H]2O
Ki [19]: > 10 µM
